{"source": "patent US8012944B2", "about": "“Method for treating cancer using IAP antisense oligomer and chemotherapeutic agent” (Pharmascience Inc., priority 2003, dated 2011)", "key": {"HIAP1 mRNA [1]": {"test_system": "HIAP1 mRNA", "test": "HIAP1 mRNA in SF295 cells under cycloheximide induction (TaqMan)", "type": "cell-based, human", "procedure": "(§1) The effect of HIAP1 antisense nucleobase oligomers on HIAP1 protein and mRNA expression was also examined in cells induced to express HIAP1. SF295 cells were transfected with oligonucleotides, or were mock transfected. The transfected cells were then treated with 10 μg/ml cycloheximide for 24 hours to induce 70 kDa HIAP1 mRNA and protein. Protein levels were measured by western blot analysis with an anti-HIAP1 polyclonal antibody, and normalized against actin protein in a re-probing of the same blots. The densitometric scan results were plotted against the mock results (set at 100%) in FIG. 22B. […] The transfection process itself (e.g., mock or scrambled survivin) induces HIAP1 protein compared to the untreated sample as shown on the western immunoblot.\nControls for this experiment were three oligonucleotides for APO 2: one scrambled sequence (same base composition but random order, 5′-AAGGGCGGCGGAGTGAGAC-3′; SEQ ID NO: 297), one reverse polarity (same base composition, same sequential order but in the opposite direction, 5′-AGAGGACGGAGTCGGAGGC-3′; SEQ ID NO: 298), and one mismatch sequence (containing four base mismatches out of 19 bases, 5′-CGGAGCGTGAGGATGGAGA-3′; SEQ ID NO: 299)."}, "XIAP protein": {"test_system": "XIAP protein", "test": "XIAP protein knock-down in H460 cells (western blot, densitometry)", "type": "cell-based, human", "procedure": "FIGS. 3 and 4 are graphs showing the effects of 4×4 mixed backbone (MBO) FG8 or E12 oligonucleotides in amounts of 31 nM (FIG. 3) or 63 nM (FIG. 4). H460 lung carcinoma cells were transfected for 18 hours on one, two, or three consecutive days using 125 nM MBOs and Lipofectamine 2000. Samples for western analysis were harvested at the indicated time. Scanning densitometry was performed, and XIAP protein levels were normalized to GAPDH and compared to a mock control set to 100%. The indicated percentages express % XIAP protein knockdown versus specific scrambled controls.\nOne day prior to transfection, H460 cells were plated in 6- or 96-well tissue culture plates. Phosphorothioate antisense oligonucleotides were delivered into cells with Lipofectamine 2000 (Life Technologies) in the form of liposome-oligonucleotide complexes. Following a 4.5 or 6 h transfection, the transfection medium was replaced with RPMI medium containing 10% FBS, and the cells incubated for another 24 or 48 h.\nThe cells or tumor tissue samples were lysed with ice-cold lysis buffer (50 mM Tris, 150 mM NaCl, 2.5 mM EDTA, 0.1% SDS, 0.5% sodium deoxycholate, 1% NP-40, 0.02% sodium azide) containing protease inhibitors (Complete-Mini protease inhibitor tablets; Boehringer Mannheim GmBH, Mannheim, Germany). After incubation for 30 min on ice, samples were centrifuged at 10,000 rpm for 15 min, and stored at −20° C. Protein content in the lysed extracts was determined using a detergent-compatible Bio-Rad assay (Bio-Rad Labs, Hercules, Calif.). Equal amounts of protein (40 μg/lane) were separated on 12% SDS-polyacrylamide gels or 4-15% gradient SDS-polyacrylamide pre-made gels (Bio-Rad) and transferred to nitrocellulose membranes. Primary antibodies against XIAP, Bcl-2 (DAKO, Glostrup, Denmark), Bax (Sigma, St. Louis, Mo.), β-actin (Sigma), caspase-3 (BD PharMingen, San Diego, Calif.), and PARP (BD PharMingen) were used. The secondary antibody was the appropriate horseradish-conjugated anti-mouse or anti-rabbit IgG (Promega, Madison, Wis.). Proteins were detected by enhanced chemiluminescence (ECL; Amersham Pharmacia Biotech, Buckinghamshire, England) and visualized after exposure to Kodak autoradiography film. Scanning densitometry (Molecular Dynamics, Sunnyvale, Calif.) was performed to quantify band intensities by volume/area integration. The amount of XIAP, caspase-3, Bcl-2 and Bax in cells was normalized to their respective lane β-actin levels, upon stripping and reprobing."}, "[2]": {"test_system": "MDA-MB-435/LCC6 human breast carcinoma xenografts", "test": "Systemic (i.p.) PS-oligonucleotides in LCC6 breast carcinoma xenografts", "type": "in vivo, female SCID-RAG2 mice", "settings": "12.5 mg/kg i.p.; day 35, two weeks after the last treatment", "procedure": "Initial systemic PS-oligonucleotide studies were designed without any chemotherapeutic agents. SCID-RAG2 mice were inoculated with H460 human lung carcinoma cells (s.c. shoulder injection of 10^6 cells) and treatments with G4 and F3 AS PS-oligonucleotides, as well as a scrambled control, were initiated three days after tumor inoculation. Nucleobase oligomer injections were administered i.p. at 12.5 mg/kg three times a week for three weeks. At the end of the treatment period, mean tumor sizes in the groups treated with either G4 or F3 AS oligonucleotides were ˜50% smaller than in the group treated with a scrambled control oligonucleotides (FIG. 15). The same treatment protocol was tested on female SCID-RAG2 mice inoculated orthotopically with MDA-MB-435/LCC6 human breast carcinoma cells. Two weeks after the last treatment (day 35) tumor volumes of mice treated with F3, C5 or G4 AS oligonucleotides were 70%, 60%, and 45%, respectively, smaller than vehicle controls (FIG. 16).\nEfficacy experiments were conducted in male RAG2 immunodeficient mice bearing NCI-H460 tumours or female RAG2 mice bearing LCC6 tumors. Treatments were commenced on day 3 after tumor inoculation. Saline (controls), G4 AS oligonucleotides (5 or 15 mg/kg), or G4 SC oligonucleotides (5 or 15 mg/kg) were administered i.p. daily for five doses a week over a three week regimen. Vinorelbine (VNB, 5 or 10 mg/kg) was administered i.v. via the tail vein, either alone or in combination with oligonucleotides, at day 3, 7, 11 and 17 after tumor inoculation. When oligonucleotides were administered in combination with VNB, the drug treatment was performed four hours after ODN treatment."}, "HIAP1 mRNA [3]": {"test_system": "HIAP1 mRNA", "test": "HIAP1 mRNA in SF295 cells, basal conditions (TaqMan)", "type": "cell-based, human", "design": "decrease of HIAP1 mRNA compared to mock or scrambled survivin control: concentration or dose not given beside the values", "procedure": "RNA was extracted from cells lysed in RLT buffer (QIAGEN, Valencia, Calif.), and purified using QIAGEN RNeasy columns/kits. Real-time quantitative PCR was performed on a Perkin-Elmer ABI 7700 Prism PCR machine. RNA was reverse transcribed and amplified according to the TaqMan Universal PCR Master Mix protocol of PE Biosystems, using primers and probes designed to specifically recognize XIAP, HIAP1, survivin, or GAPDH. For human survivin, the forward primer was 5′-[…]-3′ (SEQ ID NO: 263), the reverse primer was 5′-GAAAGGAAAGCGCAACCG-3′ (SEQ ID NO: 264), and the probe was 5′-(FAM)[…](TAMRA)-3′ (SEQ ID NO: 265). For human HIAP1, the forward primer was 5′-[…]-3′ (SEQ ID NO: 266), the reverse primer was 5′-[…]-3′ (SEQ ID NO: 267), and the probe was 5′-(FAM)[…](TAMRA)-3′ (SEQ ID NO: 268). For human XIAP, the forward primer was 5′-[…]-3′ (SEQ ID NO: 269), the reverse primer was 5′-[…]-3′ (SEQ ID NO: 270), and the probe was 5′-(FAM)[…](TAMRA)-3′ (SEQ ID NO: 271). For human GAPDH, the forward primer was 5′-GAAGGTGAAGGTCGGAGTC-3′ (SEQ ID NO: 272), the reverse primer was 5′-GAAGATGGTGATGGGATTC-3′ (SEQ ID NO: 273), and the probe was 5′-(JOE)[…](TAMRA)-3′ (SEQ ID NO: 274). FAM is 6-carboxyfluoroscein, JOE is 6-carboxy-4,5-dichloro-2,7-dimethoxyfluoroscein, and TAMRA is 6-carboxy-N,N,N′,N′-tetramethylrhodamine. FAM and JOE are 5′ reporter dyes, while TAMRA is a 3′ quencher dye.\nRelative quantification of gene expression was performed as described in the PE Biosystems manual using GAPDH as an internal standard. The comparative Ct (cycle threshold) method was used for relative quantitation of IAP mRNA levels compared to GAPDH mRNA levels. Briefly, real-time fluorescence measurements were taken at each PCR cycle and the threshold cycle (Ct) value for each sample was calculated by determining the point at which fluorescence exceeded a threshold limit of 30 times the baseline standard deviation. The average baseline value and the baseline SD are calculated starting from the third cycle baseline value and stopping at the baseline value three cycles before the signal starts to exponentially rise. The PCR primers and/or probes for the specific IAPs were designed to span at least one exon-intron boundary separated by 1 kb or more of genomic DNA, to reduce the possibility of amplifying and detecting genomic DNA contamination. The specificity of the signal, and possible contamination from DNA, were verified by treating some RNA samples with either DNase or RNase, prior to performing the reverse transcription and PCR reaction steps.\nA library of 15 HIAP1 antisense nucleobase oligomers as oligonucleotides was screened for protein knock-down by western blot analysis and for RNA knock-down by TaqMan, using the primers and probes described in Example 3, above, under two different conditions. HIAP1 RNA levels may be detected using standard Northern blot analyses or RT-PCR techniques. The antisense oligonucleotides were administered to cells under basal conditions or under cycloheximide-induction conditions (24 hour treatment with sub-toxic doses). Cycloheximide (CHX) can lead to a 10- to 200-fold induction of HIAP1 mRNA depending on the cell line treated. […] This effect of CHX is via two distinct mechanisms of action. First, CHX activates NFkB, a known transcriptional inducer of HIAP1, by blocking the de novo synthesis of a labile protein, IkB, which is an inhibitor of NFkB. This effect is mimicked by puromycin, another protein synthesis inhibitor, and by TNF-alpha, which induces a signaling cascade leading to the phosphorylation, ubiquination, and degradation of IkB.\nSF295 glioblastoma cells were transfected with lipofectin and oligonucleotide (scrambled survivin, no oligonucleotide, antisense APO 1 to APO 15) or left untreated. […]"}, "HIAP1 protein": {"test_system": "HIAP1 protein", "test": "HIAP1 protein in cycloheximide-induced SF295 cells (western blot)", "type": "cell-based, human", "source_text": "HIAP1 was detected on a western immunoblot using an affinity-purified anti-rat HIAP1 rabbit polyclonal antibody as a primary antibody and was detected by ECL (Amersham) on X-ray film with a secondary horseradish-peroxidase-conjugated anti-rabbit Ig antibody and a chemiluminescent substrate. The anti-HIAP1 polyclonal antibody is raised against a GST-fusion of the rat HIAP1. This antibody cross-reacts with both human and murine HIAP1 and HIAP2.\nas §1"}, "XIAP mRNA": {"test_system": "XIAP mRNA", "test": "XIAP mRNA knock-down in H460 cells (real-time RT-PCR / TaqMan)", "type": "cell-based, human", "how_it_was_run": "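NCI-H460 cells transfected with phosphorothioate antisense oligonucleotides via Lipofectamine 2000; RNA isolated after 6 h treatment. XIAP mRNA quantified by one-step TaqMan real-time RT-PCR, comparative Ct (threshold 30× baseline SD), normalized to GAPDH and expressed relative to untreated control cells.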"}}, "data": [{"substance": "5′-AAGGGCGGCGGAGTGAGAC-3′ (listed as DNA, chemistry not given here) [H1 sc apo 2, reference compound]", "values": [{"measurement": "effect on HIAP1 mRNA (and protein) under CHX induction (in words)", "setting": "HIAP1 mRNA [1]", "value": "did not change HIAP1 mRNA levels at all"}]}, {"substance": "ACCATTCTGGATACCAGAA (chemistry not fully specified) [C5 AS]", "values": [{"measurement": "effect on XIAP protein levels (in words)", "setting": "XIAP protein", "value": "did not show sequence specific effects"}, {"measurement": "tumor volumes smaller than vehicle controls", "setting": "[2]", "value": 60, "unit": "%"}]}, {"substance": "TCATTTGAGCCTGGGAGGT (chemistry not given here) [APO 1]", "values": [{"measurement": "HIAP1 mRNA levels (in words)", "setting": "HIAP1 mRNA [3]; SF295 cells (FIG. 21)", "value": "did not cause a stress-induced increase in HIAP1 mRNA"}, {"measurement": "decrease of HIAP1 mRNA compared to mock or scrambled survivin control", "setting": "HIAP1 mRNA [3]; SF295 cells, six hours after transfection", "value": "~50", "unit": "%"}, {"measurement": "activity in the HIAP1 protein and mRNA assays", "setting": "HIAP1 protein", "value": "high activity, or had significant activity in both the protein and mRNA assays"}]}, {"substance": "TGTCAGTACATGTTGGCTC (antisense; chemistry not fully specified) [Code E12]", "values": [{"measurement": "XIAP down-regulation H460 RNA", "setting": "XIAP mRNA", "value": 74, "unit": "%"}, {"measurement": "effect on XIAP protein levels (in words)", "setting": "XIAP protein", "value": "significantly reduced XIAP protein levels"}]}, {"substance": "mUmGmCmACCCTGGATACCmAmUmUmU (antisense NGCACCCNGGANACCANNN; 2'-O-methyl modifications, chemistry not fully specified) [FG8]", "values": [{"measurement": "effect on XIAP protein levels (in words)", "setting": "XIAP protein", "value": "significantly reduced XIAP protein levels"}]}]}
